Assay: Liver microsomal clearance, mouse
Type: in vitro ADME
Conditions: pH 7.4; Mouse liver microsomes; 1 mg/mL; 20 minutes
Description: The predicted hepatic clearance (CLh) value was calculated by scaling the in vitro half-life (t1/2) for stability of the compound in liver microsomes (1 mg/mL; 20 minutes) using the physical and physiological scaling factors used to predict intrinsic clearance (CLint) and hepatic clearance (CLhep) listed in Table 2 and employed in the following equations: […]
where D is the amount of cytochrome P450-related protein per mass of liver, W is the average mass of liver present per weight of animal, C is the liver microsomal concentration, and Q is the species-dependent hepatic blood flow.
A 100 mM potassium phosphate assay buffer solution (KPB) was prepared as follows. Both KH2PO4 and K2HPO4 were dissolved separately in reagent grade water resulting in final concentrations 100 mM. A 75:25 mixture v/v of K2HPO4:KH2PO4 was prepared and the pH of the solution was adjusted to 7.4 using diluted HCl or diluted NaOH solutions. Stock solutions of Compound 1, Compound 2 and Compound 3 were prepared at 10 mM (active compound) in DMSO. The stock solution was diluted immediately before use to 2.5 μM using the KPB solution to create the working standard. All test compounds were completely soluble in DMSO by visual inspection at room temperature. The NADPH-regenerating solution (NRS) was prepared on the day of analysis by diluting one volume of 17 mg/mL NADP^+ with one volume of 78 mg/mL glucose-6-phosphate (both prepared in KPB, pH 7.4) and 7.9 volumes of 20 mM MgCl2. The final concentrations of NADP^+ and glucose-6-phosphate were 1.7 mg/mL and 7.8 mg/mL, respectively. […]
All calculations were performed using BioAssay Enterprise. The mean peak area ratios were calculated by averaging the peak area ratios (n=2) of Compound 1, Compound 2, Compound 3, and the internal standard for each sample. Percent remaining was calculated by determining the ratio of the peak area ratio at each time point to the peak area ratio of the time-zero samples. The rate of loss of test compound (km) was determined by linear regression of −ln(f(t)) versus time. […] The t1/2 was determined dividing ln(2) by km. […]

COCCN1C[C@@H](NC(=O)Nc2c(C)c(-c3cnn(C)c3)nn2-c2ccccc2)[C@H](c2ccc(F)cc2)C1 [Compound 3, 1-(1′,4-dimethyl-1-phenyl-1H,1′H-[3,4′-bipyrazol]-5-yl)-3-((3S,4R)-4-(4-fluorophenyl)-1-(2-methoxyethyl)pyrrolidin-3-yl)urea]
CLhep predicted at 1 μM: 60 mL/min/kg

COCCN1C[C@@H](NC(=O)Nc2c(C)c(-c3cnc(C)nc3)nn2-c2ccccc2)[C@H](c2cccc(F)c2)C1 [Compound 1, 1-((3S,4R)-4-(3-fluorophenyl)-1-(2-methoxyethyl)pyrrolidin-3-yl)-3-(4-methyl-3-(2-methylpyrimidin-5-yl)-1-phenyl-1H-pyrazol-5-yl)urea]
CLhep predicted at 1 μM: 50 mL/min/kg

COCCN1C[C@@H](NC(=O)Nc2c(C)c(-c3cnc(C)nc3)nn2-c2ccccc2)[C@H](c2ccc(F)c(F)c2)C1 [Compound 2, 1-((3S,4R)-4-(3,4-difluorophenyl)-1-(2-methoxyethyl)pyrrolidin-3-yl)-3-(4-methyl-3-(2-methylpyrimidin-5-yl)-1-phenyl-1H-pyrazol-5-yl)urea]
CLhep predicted at 1 μM: 57 mL/min/kg

From US10835533B2, “1 -((3S,4R)-4-(3-fluorophenyl)-1-(2-methoxyethyl)pyrrolidin-3-yl)-3-(4-methyl-3-(2-methylpyrimidin-5-yl)-1-phenyl-1H-pyrazol-5-yl)urea as a TrkA kinase inhibitor” (Array BioPharma Inc., priority 2014, dated 2020)
